# Reference: patent publication US20220306695A1, “COMPSTATIN ANALOGUES AND THEIR MEDICAL USES” (priority 2019, published 2022)
# Like-named read-outs stand apart in the source and are kept apart here. Starred links: 1 amine or outer side, 2 acyl side, 3 side chain; linkers in the order of their positions; H or OH if unused. Positions of bridges follow the written chain, without caps; N, C: chain ends. Non-standard residues stand in square brackets, D forms with d. Residues, ends and D or L forms follow the SMILES beside them. Groups on a side chain read outwards from the residue. *: point of attachment. X1 = O=C(O)CCCCCCCCCCCCCCC(=O)N1CCN(CC(=O)*)CC1; Trp(1-Me) = Cn1cc(C[C@H](N)C(=O)O)c2ccccc21; Abu(4-yl) = O=C([C@H](CC[*:3])N[*:1])[*:2]; C18 diacid = O=C(O)CCCCCCCCCCCCCCCCC(=O)*; γGlu = O=C(O)[C@H](CCC(=O)[*:2])N[*:1]; AEEA = NCCOCCOCC(=O)O; Sar = CNCC(=O)O
# System: classical complement pathway
# Experiment: In vitro haemolysis assay (inhibition of classical complement pathway)
# Type: cell-based, human
# Outline: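 Serially diluted compound (9 points) was preincubated 15 min at room temperature with diluted human serum, titrated per batch to give 70-90% maximal haemolysis, in Tris/casein buffer pH 7.4 with Mg2+/Ca2+. Antibody-sensitized sheep erythrocytes were then added for 30 min at 37° C, and the reaction was stopped with EDTA. Haemolysis was read at A405, with IC50 from 4PL fit.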
# [1] = Table 3, human serum, sensitized sheep red blood cells, read-out: IC50[nM], in vitro analysis of inhibition of hemolysis
SMILES,IC50 [1],"IC50 (Table 4, valine 3 versus isoleucine 3 pairs, read-out: CP hemolysis IC50)"
CC[C@H](C)[C@@H]1NC(=O)[C@@H](NC(=O)[C@H](Cc2ccccc2)NC(=O)[C@H](CCC(=O)O)NC(=O)CNC(C)=O)CSSC[C@@H](C(=O)N(C)CC(=O)N[C@@H](CCC(=O)O)C(=O)N[C@@H](C)C(N)=O)NC(=O)[C@H](CCCNC(=N)N)NC(=O)[C@H](Cc2c[nH]cn2)NC(=O)[C@H](CCC(=O)O)NC(=O)CNC(=O)[C@H](Cc2c[nH]c3ccccc23)NC(=O)[C@H](CC(=O)O)NC(=O)[C@H](CCC(N)=O)NC(=O)[C@H](Cc2cn(C)c3ccccc23)NC1=O [Compound 87] (Ac-GEFCI[Trp(1-Me)]QDWGEHRC[Sar]EA-NH2; disulfide 4-14),< 100 nM,
"CC[C@H](C)[C@H](NC(C)=O)C(=O)N[C@H]1CSSC[C@@H](C(=O)N[C@H](C(=O)NCC(=O)N[C@@H](C)C(=O)N[C@@H](CCC(=O)O)C(=O)N[C@@H](CO)C(N)=O)[C@@H](C)O)NC(=O)[C@H](CCCNC(=N)N)NC(=O)[C@H](Cc2c[nH]cn2)NC(=O)[C@H](CCC(=O)O)NC(=O)CNC(=O)[C@H](Cc2c[nH]c3ccccc23)NC(=O)[C@H](CC(=O)O)NC(=O)[C@H](CCC(N)=O)NC(=O)[C@H](Cc2c[nH]c3ccccc23)NC(=O)[C@H](C(C)C)NC1=O [D, reference compound] (Ac-ICVWQDWGEHRCTGAES-NH2; disulfide 2-12)",,210 nM
"CC[C@H](C)[C@@H]1NC(=O)[C@@H](NC(=O)[C@H](Cc2ccccc2)NC(=O)[C@H](CCC(=O)O)NC(=O)[C@H](CO)NC(C)=O)CSCC[C@@H](C(=O)N(C)CC(=O)N[C@@H](CCC(=O)O)C(=O)NCCOCCOCC(=O)NCCOCCOCC(=O)N[C@@H](CCCCNC(=O)CC[C@H](NC(=O)CNC(=O)CC[C@H](NC(=O)CCCCCCCCCCCCCCCCC(=O)O)C(=O)O)C(=O)O)C(=O)O)NC(=O)[C@H](CCCNC(=N)N)NC(=O)[C@H](Cc2c[nH]cn2)NC(=O)[C@H](CCC(=O)O)NC(=O)CN(C)C(=O)[C@H](Cc2c[nH]c3ccccc23)NC(=O)[C@H](CC(=O)O)NC(=O)[C@H](CCC(N)=O)NC(=O)[C@H](Cc2cn(C)c3ccccc23)NC1=O [Compound 162, Ac-SEFA(1)I[1-Me-Trp]QDW[Sar]EHRhC(1)[Sar]E[Peg3][Peg3]-K([17-carboxy-heptadecanoyl][γGlu]G[γGlu])-OH] (Ac-SEFCI[Trp(1-Me)]QDW[Sar]EHR[Abu(4-yl)][Sar]E[AEEA][AEEA]K([γGlu-Gly-γGlu-C18 diacid])-OH; thioether 4-14)",< 100 nM,
"CC[C@H](C)[C@@H]1NC(=O)[C@@H](NC(=O)[C@H](Cc2ccccc2)NC(=O)[C@H](CCC(=O)O)NC(=O)CNC(C)=O)CSCC[C@@H](C(=O)N(C)CC(=O)N[C@@H](CCC(=O)O)C(=O)NCC(=O)N[C@@H](CCC(=O)O)C(=O)NCCOCCOCC(=O)N[C@@H](CCC(=O)O)C(=O)N[C@@H](CO)C(=O)N[C@@H](CCCCNC(=O)CC[C@H](NC(=O)CNC(=O)CC[C@H](NC(=O)CCCCCCCCCCCCCCCCC(=O)O)C(=O)O)C(=O)O)C(N)=O)NC(=O)[C@H](CCCNC(=N)N)NC(=O)[C@H](Cc2c[nH]cn2)NC(=O)[C@H](CCC(=O)O)NC(=O)CNC(=O)[C@H](Cc2c[nH]c3ccccc23)NC(=O)[C@H](CCC(=O)O)NC(=O)[C@H](CCC(N)=O)NC(=O)[C@H](Cc2cn(C)c3ccccc23)NC1=O [Compound 155, Ac-GEFA(1)I[1-Me-Trp]QEWGEHRhC(1)[Sar]EGE[Peg3]ES-K([17-carboxy-heptadecanoyl][γGlu]G[γGlu])-NH2] (Ac-GEFCI[Trp(1-Me)]QEWGEHR[Abu(4-yl)][Sar]EGE[AEEA]ESK([γGlu-Gly-γGlu-C18 diacid])-NH2; thioether 4-14)",< 100 nM,
CC[C@H](C)[C@@H]1NC(=O)[C@@H](NC(=O)CN(C)C(C)=O)CSSC[C@@H](C(=O)N[C@H](C(N)=O)[C@@H](C)O)NC(=O)[C@H](CCCNC(=N)N)NC(=O)[C@H](Cc2c[nH]cn2)NC(=O)[C@H](CCC(=O)O)NC(=O)CNC(=O)[C@H](Cc2c[nH]c3ccccc23)NC(=O)[C@H](CC(=O)O)NC(=O)[C@H](CCC(N)=O)NC(=O)[C@H](Cc2c[nH]c3ccccc23)NC1=O [Compound 11] (Ac-[Sar]CIWQDWGEHRCT-NH2; disulfide 2-12),< 100 nM,
CC[C@H](C)[C@H](NC(C)=O)C(=O)N[C@H]1CSSC[C@@H](C(=O)N[C@H](C(=O)N[C@@H](CCC(=O)O)C(=O)NCC(=O)N[C@@H](CCCCNC(=O)COCCOCCNC(=O)COCCOCCNC(=O)CN2CCN(C(=O)CCCCCCCCCCCCCCC(=O)O)CC2)C(N)=O)[C@@H](C)O)NC(=O)[C@H](CCCNC(=N)N)NC(=O)[C@H](Cc2c[nH]cn2)NC(=O)[C@H](CCC(=O)O)NC(=O)CNC(=O)[C@H](Cc2c[nH]c3ccccc23)NC(=O)[C@H](CC(=O)O)NC(=O)[C@H](CCC(N)=O)NC(=O)[C@H](Cc2c[nH]c3ccccc23)NC(=O)[C@H]([C@@H](C)CC)NC1=O [Compound 95] (Ac-ICIWQDWGEHRCTEGK([AEEA-AEEA-X1])-NH2; disulfide 2-12),< 500 nM,
CC[C@H](C)[C@@H]1NC(=O)[C@@H](NC(=O)[C@H](Cc2ccccc2)NC(=O)[C@H](CCC(=O)O)NC(=O)[C@H](CO)NC(C)=O)CSSC[C@@H](C(=O)N(C)CC(=O)N[C@@H](CCC(=O)O)C(=O)N[C@@H](CCCCN)C(=O)N[C@@H](CCC(=O)NCC(=O)NCC(=O)NCC(=O)N[C@@H](CCCCNC(=O)CC[C@H](NC(=O)CNC(=O)CC[C@H](NC(=O)CCCCCCCCCCCCCCCCC(=O)O)C(=O)O)C(=O)O)C(N)=O)C(=O)O)NC(=O)[C@H](CCCNC(=N)N)NC(=O)[C@H](Cc2c[nH]cn2)NC(=O)[C@H](CCC(=O)O)NC(=O)CNC(=O)[C@H](Cc2c[nH]c3ccccc23)NC(=O)[C@H](CC(=O)O)NC(=O)[C@H](CCC(N)=O)NC(=O)[C@H](Cc2cn(C)c3ccccc23)NC1=O [Compound 132] (Ac-SEFCI[Trp(1-Me)]QDWGEHRC[Sar]EK[γGlu]GGGK([γGlu-Gly-γGlu-C18 diacid])-NH2; disulfide 4-14),< 100 nM,
CC[C@H](C)[C@H](NC(C)=O)C(=O)N[C@H]1CSSC[C@@H](C(=O)N[C@H](C(N)=O)[C@@H](C)O)NC(=O)[C@H](CCCNC(=N)N)NC(=O)[C@H](Cc2c[nH]cn2)NC(=O)[C@H](CCCCN)NC(=O)CNC(=O)[C@H](Cc2c[nH]c3ccccc23)NC(=O)[C@H](CC(=O)O)NC(=O)[C@H](CCC(N)=O)NC(=O)[C@H](Cc2c[nH]c3ccccc23)NC(=O)[C@H]([C@@H](C)CC)NC1=O [Compound 5] (Ac-ICIWQDWGKHRCT-NH2; disulfide 2-12),< 250 nM,
CC[C@H](C)[C@@H]1NC(=O)[C@@H](NC(=O)[C@@H](NC(=O)[C@H](CCC(=O)O)NC(C)=O)[C@@H](C)CC)CSSC[C@@H](C(=O)N[C@H](C(=O)N[C@@H](CCC(=O)O)C(=O)NCC(=O)N[C@@H](CCC(=O)O)C(N)=O)[C@@H](C)O)NC(=O)[C@H](CCCNC(=N)N)NC(=O)[C@H](Cc2c[nH]cn2)NC(=O)[C@H](CCC(=O)O)NC(=O)CNC(=O)[C@H](Cc2c[nH]c3ccccc23)NC(=O)[C@H](CC(=O)O)NC(=O)[C@H](CCC(N)=O)NC(=O)[C@H](Cc2c[nH]c3ccccc23)NC1=O [Compound 34] (Ac-EICIWQDWGEHRCTEGE-NH2; disulfide 3-13),< 250 nM,
CC[C@H](C)[C@@H]1NC(=O)[C@@H](NC(=O)[C@H](Cc2ccc(O)cc2)NC(=O)[C@H](C)NC(=O)[C@H](CO)NC(=O)CNC(=O)[C@H](CCC(=O)O)NC(C)=O)CSSC[C@@H](C(=O)N[C@H](C(=O)N[C@@H](CCC(=O)O)C(N)=O)[C@@H](C)O)NC(=O)[C@H](CCCNC(=N)N)NC(=O)[C@H](Cc2c[nH]cn2)NC(=O)[C@H](CCC(=O)O)NC(=O)CNC(=O)[C@H](Cc2c[nH]c3ccccc23)NC(=O)[C@H](CC(=O)O)NC(=O)[C@H](CCC(N)=O)NC(=O)[C@H](Cc2cn(C)c3ccccc23)NC1=O [Compound 59] (Ac-EGSAYCI[Trp(1-Me)]QDWGEHRCTE-NH2; disulfide 6-16),< 100 nM,
